Experimental data: paper PMC11558128 (Advanced Science, 2024)
Numbering of substitutions follows the chain as printed. Where two headings read alike, the source gives them in different places. Positions of bridges follow the written chain, without caps; N, C: chain ends. Residues, ends and D or L forms follow the SMILES beside them.

Tests used:
Assay in all cases: cell-based
[1] = target: T1, rKv4.3 (Rattus norvegicus, UniProt Q62897); conditions: whole-cell patch clamp, HEK293T, mean ± S.E.M., SEM
T1 construct: expressed in transfected cells; host or cells: HEK293T
T1 sequence (Q62897 1-655): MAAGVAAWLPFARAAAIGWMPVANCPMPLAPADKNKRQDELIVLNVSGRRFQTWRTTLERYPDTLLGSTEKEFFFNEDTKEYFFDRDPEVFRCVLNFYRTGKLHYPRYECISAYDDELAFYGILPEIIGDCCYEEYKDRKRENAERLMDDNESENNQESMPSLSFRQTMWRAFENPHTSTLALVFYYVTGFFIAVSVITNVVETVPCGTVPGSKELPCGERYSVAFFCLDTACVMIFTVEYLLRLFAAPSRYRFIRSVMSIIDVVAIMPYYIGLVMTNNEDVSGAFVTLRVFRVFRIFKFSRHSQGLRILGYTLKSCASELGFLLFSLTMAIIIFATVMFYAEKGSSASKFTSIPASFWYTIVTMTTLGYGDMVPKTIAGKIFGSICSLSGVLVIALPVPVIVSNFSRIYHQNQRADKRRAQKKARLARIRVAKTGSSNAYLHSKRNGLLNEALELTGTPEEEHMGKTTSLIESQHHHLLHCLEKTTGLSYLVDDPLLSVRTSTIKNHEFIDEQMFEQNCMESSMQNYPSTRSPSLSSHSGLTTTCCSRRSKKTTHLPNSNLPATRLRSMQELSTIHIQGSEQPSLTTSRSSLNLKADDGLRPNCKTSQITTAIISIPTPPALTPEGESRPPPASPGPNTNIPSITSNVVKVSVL

[2] = target: T2, rKv4.2 N282A (Rattus norvegicus, UniProt Q63881, N282A); conditions: mean ± SEM
T2 construct: expressed in transfected cells; host or cells: HEK293T
T2 sequence (Q63881 1-630 N282A): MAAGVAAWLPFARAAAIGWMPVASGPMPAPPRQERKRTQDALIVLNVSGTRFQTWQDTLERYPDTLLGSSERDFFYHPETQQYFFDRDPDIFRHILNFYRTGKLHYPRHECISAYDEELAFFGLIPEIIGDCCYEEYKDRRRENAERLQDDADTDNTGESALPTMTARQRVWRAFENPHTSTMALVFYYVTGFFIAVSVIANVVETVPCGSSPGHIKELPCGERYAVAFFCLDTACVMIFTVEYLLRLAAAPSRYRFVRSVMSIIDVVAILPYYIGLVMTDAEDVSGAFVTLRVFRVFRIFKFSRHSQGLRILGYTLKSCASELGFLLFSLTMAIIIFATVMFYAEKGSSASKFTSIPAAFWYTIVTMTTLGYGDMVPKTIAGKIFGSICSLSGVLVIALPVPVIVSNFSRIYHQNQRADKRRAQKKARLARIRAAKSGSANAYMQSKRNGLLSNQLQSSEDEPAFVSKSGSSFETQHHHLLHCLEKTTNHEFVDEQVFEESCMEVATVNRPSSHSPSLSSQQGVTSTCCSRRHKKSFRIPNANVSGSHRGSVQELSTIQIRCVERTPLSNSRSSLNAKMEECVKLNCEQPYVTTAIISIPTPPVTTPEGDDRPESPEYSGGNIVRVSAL

[3] = target: T3, rKv4.2 V278A (Rattus norvegicus, UniProt Q63881, V278A); conditions: mean ± SEM
T3 construct: expressed in transfected cells; host or cells: HEK293T
T3 sequence (Q63881 1-630 V278A): T2 sequence (Q63881 1-630 N282A) with V278A, A282N

[4] = target: T4, rKv4.2 (Rattus norvegicus, UniProt Q63881); conditions: whole-cell patch clamp, HEK293T, n = 3-8, SEM
T4 construct: expressed in transfected cells; host or cells: HEK293T
T4 sequence (Q63881 1-630): T2 sequence (Q63881 1-630 N282A) with A282N

[5] = held at -80 mV, step to 0 mV, n = 3-8
[6] = mean ± SEM, read-out: IC50 on rKv4.2 WT

SMILES | IC50 [1, 5] [nM] | IC50 [2] [nM] | IC50 [3] [nM] | IC50 [4, 6] [nM] | IC50 ([4]; held at -80 mV, step to 0 mV, mean ± S.E.M., read-out: IC50 for rKv4.2) [nM] | IC50 ([1]; n = 5) [nM]
CC(C)C[C@H](NC(=O)[C@H](Cc1ccc(O)cc1)NC(=O)[C@@H](NC(=O)[C@H](CCCCN)NC(=O)[C@@H]1CSSC[C@@H]2NC(=O)[C@H](CCC(=O)O)NC(=O)[C@H](CC(N)=O)NC(=O)[C@H](CCCCN)NC(=O)CNC(=O)[C@@H]3CCCN3C(=O)[C@H]([C@@H](C)O)NC(=O)[C@@H]3CSSC[C@H](NC(=O)[C@H](C)NC(=O)[C@H](Cc4ccc(O)cc4)NC(=O)[C@H](CC(N)=O)NC(=O)[C@@H]4CCCN4C(=O)[C@H](CSSC[C@H](NC(=O)CN)C(=O)N[C@@H](CCCCN)C(=O)NCC(=O)N[C@@H](Cc4ccccc4)C(=O)NCC(=O)N[C@@H](CC(=O)O)C(=O)N[C@@H](CO)C(=O)N3)NC2=O)C(=O)N[C@@H](CO)C(=O)N[C@@H](CO)C(=O)N[C@@H](CCCCN)C(=O)N[C@@H](Cc2c[nH]cn2)C(=O)N[C@@H](CCCCN)C(=O)N[C@@H](Cc2c[nH]c3ccccc23)C(=O)N1)C(C)C)C(N)=O [HNTX-III] (H-GCKGFGDSCTPGKNECCPNYACSSKHKWCKVYL-NH2; disulfide 2-17, 9-22, 16-29) | 373 ± 65.5 | 8 ± 2 | 177 ± 63 | 162 ± 23 |  | 
CC[C@H](C)[C@H](NC(=O)[C@H](CCC(=O)O)NC(=O)[C@H](Cc1ccc(O)cc1)NC(=O)[C@H](CCCCN)NC(=O)[C@@H]1CSSC[C@@H]2NC(=O)[C@H](CCC(N)=O)NC(=O)[C@H](CC(=O)O)NC(=O)[C@H](CC(N)=O)NC(=O)[C@H](CO)NC(=O)[C@@H]3CCCN3C(=O)[C@H](CC(N)=O)NC(=O)[C@@H]3CSSC[C@H](NC(=O)[C@H](C(C)C)NC(=O)[C@H](CC(C)C)NC(=O)[C@H](CC(N)=O)NC(=O)[C@H](CO)NC(=O)[C@H](CO)NC(=O)[C@H](CCCCN)NC(=O)[C@H](CSSC[C@H](NC(=O)[C@@H](N)CCC(=O)O)C(=O)N[C@@H](CC(C)C)C(=O)NCC(=O)N[C@@H](Cc4ccccc4)C(=O)NCC(=O)N[C@@H](CCCCN)C(=O)NCC(=O)N3)NC2=O)C(=O)N[C@@H](CO)C(=O)N[C@@H](CCCNC(=N)N)C(=O)N[C@@H](CCCCN)C(=O)N[C@@H](Cc2c[nH]cn2)C(=O)N[C@@H](CCCNC(=N)N)C(=O)N[C@@H](Cc2c[nH]c3ccccc23)C(=O)N1)C(N)=O [HNTX-IV] | 189 ± 14.7 | 11 ± 2 | 182 ± 50 | 51 ± 10 |  | 
CC(C)C[C@@H]1NC(=O)[C@H](Cc2c[nH]c3ccccc23)NC(=O)[C@H](Cc2ccc(O)cc2)NC(=O)[C@H](CCCNC(=N)N)NC(=O)[C@@H](NC(=O)[C@@H](N)CCC(=O)O)CSSC[C@@H]2NC(=O)[C@@H]3CSSC[C@@H](C(=O)N[C@H](C(=O)N[C@@H](Cc4c[nH]c5ccccc45)C(=O)N[C@@H](CC(=O)O)C(=O)N[C@@H](Cc4c[nH]c5ccccc45)C(=O)N[C@H](C(=O)N[C@@H](Cc4ccccc4)C(N)=O)[C@@H](C)O)C(C)C)NC(=O)[C@H](Cc4c[nH]c5ccccc45)NC(=O)CNC(=O)[C@H](Cc4c[nH]cn4)NC(=O)[C@H](CCCCN)NC(=O)[C@@H]4CCCN4C(=O)[C@H](CO)NC(=O)[C@H](CSSC[C@H](NC(=O)[C@H]([C@@H](C)O)NC(=O)CNC1=O)C(=O)N[C@@H](CO)C(=O)N[C@@H](CCCCN)C(=O)N[C@@H]([C@@H](C)O)C(=O)NCC(=O)N[C@@H](CC(=O)O)C(=O)N3)NC(=O)[C@H](CO)NC(=O)[C@H](CC(C)C)NC(=O)[C@H](Cc1c[nH]cn1)NC(=O)[C@H](CO)NC2=O [HNTX-VIIa] (H-ECRYWLGTCSKTGDCCSHLSCSPKHGWCVWDWTF-NH2; disulfide 2-16, 9-21, 15-28) | 130 ± 14.5 | 21 ± 1 | 53 ± 6 |  | 18 ± 3.2 | 
CSCC[C@@H]1NC(=O)CNC(=O)[C@H](CCC(=O)O)NC(=O)[C@@H]2CSSC[C@H](NC(=O)[C@@H](N)Cc3ccc(O)cc3)C(=O)N[C@@H](CCC(N)=O)C(=O)N[C@@H](CCCCN)C(=O)N[C@@H](Cc3c[nH]c4ccccc34)C(=O)N[C@@H](CCSC)C(=O)N[C@@H](Cc3c[nH]c4ccccc34)C(=O)N[C@@H]([C@@H](C)O)C(=O)N[C@H]3CSSC[C@H](NC(=O)[C@H](C(C)C)NC1=O)C(=O)N[C@@H](CCCNC(=N)N)C(=O)N[C@@H](CC(C)C)C(=O)N[C@@H](Cc1c[nH]c4ccccc14)C(=O)N[C@H](C(=O)N[C@@H](CCCCN)C(=O)N[C@@H](CCCCN)C(=O)N[C@@H](CCCCN)C(=O)N[C@@H](CC(C)C)C(=O)N[C@@H](Cc1c[nH]c4ccccc14)C(=O)O)CSSC[C@H](NC(=O)[C@H](CCCCN)NC(=O)[C@H](CCCNC(=N)N)NC(=O)[C@H](CCC(=O)O)NC(=O)[C@H](CO)NC(=O)[C@H](CC(=O)O)NC3=O)C(=O)N2 [ProTx-II] | 5.1 ± 0.4 | 7 ± 1 | 10 ± 2 | 5 ± 2 |  | 
CC[C@H](C)[C@@H]1NC(=O)[C@@H]2CSSC[C@@H]3NC(=O)[C@H](C(C)C)NC(=O)[C@H](CC(C)C)NC(=O)[C@H](CC(N)=O)NC(=O)[C@@H]4CCCN4C(=O)[C@H](CCCNC(=N)N)NC(=O)[C@H](CSSC[C@H](NC(=O)[C@@H](N)CC(=O)O)C(=O)N[C@@H](CC(C)C)C(=O)NCC(=O)N[C@@H](C)C(=O)N[C@@H](Cc4ccccc4)C(=O)N[C@@H](CCCNC(=N)N)C(=O)N[C@@H](CCCCN)C(=O)N2)NC(=O)[C@H](CSSC[C@@H](C(=O)N[C@@H](CCCCN)C(=O)N[C@@H](Cc2ccc(O)cc2)C(=O)N[C@H](C(=O)N[C@@H](Cc2ccccc2)C(N)=O)C(C)C)NC(=O)[C@H](Cc2c[nH]c4ccccc24)NC(=O)[C@H](CCCNC(=N)N)NC(=O)[C@H](Cc2c[nH]cn2)NC(=O)[C@H](C)NC(=O)[C@H](CO)NC(=O)[C@H](CO)NC3=O)NC(=O)[C@H](CCCCN)NC(=O)[C@H](CC(=O)O)NC(=O)[C@H](CC(N)=O)NC(=O)[C@H](CC(=O)O)NC(=O)[C@@H]2CCCN2C1=O [mGpTx1-SA] (H-DCLGAFRKCIPDNDKCCRPNLVCSSAHRWCKYVF-NH2; disulfide 2-17, 9-23, 16-30) |  |  |  | 30000 ± 9000 |  | 2000 ± 300
